Read-outs that look alike come from different tables or passages of the source.
Experiments:
[1] = Metabolic stability of liver microsomes in vitro (mouse); type: in vitro ADME; settings: read-out: Mouse T1/2/min
Procedure: Microsomes were taken out from the −80° C. refrigerator, rapidly melted in a 37° C. water bath and placed on ice until ready to use. The test article was diluted with DMSO to prepare a 10 mM stock solution, and then diluted with acetonitrile to a 0.5 mM secondary stock solution. The microsomes were diluted to 0.75 mg/ml using Buffer C; the secondary stock solution was then added to a final concentration of 1.5 μM of compound as working solution, based on n=2, 5 time points, 350 μL of each compound was prepared and placed on ice prior to use. NADPH was diluted with Buffer C to a working solution of 6 mM for the starter solution. An acetonitrile solution containing an internal standard was prepared as the precipitant, and Verapamil-HCl was chosen as the internal standard at a concentration of 4 ng/ml.
A round-bottom well plate was taken, noted as the reaction plate, and the prepared working solution for each compound was dispensed into the well plate according to the number of replicates and time points (0 h samples are also added to the reaction plate), 30 μL/well; the plate was incubated at 37° C. for 10 min. A separate plate with pointed bottom wells, noted as a precipitation plate, was added with 135 μL precipitant per well; 0 h samples were transferred to the plate after 10 min incubation and 15 μL of starter solution was added; the plate was placed on ice before centrifugation.
The diluted starter solution was added in sufficient quantity to the dispensing plate to facilitate the multichannel pipette aspiration operation.
The reaction was carried out on a warm incubation shaker and 15 μL of starter solution/sample is added to the plate using a multichannel pipette. The reaction was mixed with a slight shake to initiate the reaction, which was accurately timed and recorded using a timer;
After the reaction time had elapsed, all the solution in the plate was aspirated using the multichannel pipette and added to the precipitation plate to terminate the reaction at that point in time. After all reactions had been terminated, the plates were shaken for ten minutes on a plate shaker at 600 rpm to precipitate the protein. The plate was centrifuged at 4° C. for 15 minutes at maximum rpm. 80 μL of supernatant was taken, 320 μL of pure water was added and mixed for LC-MS analysis.

[2] = test system: MIA Paca-2 cells; test: Anti-proliferative effect by Cell Titer-Glo, MIA Paca-2; type: cell-based; settings: Homo sapiens, read-out: IC50 measured value MIA Paca-2
Procedure: Compound solutions of different concentration gradients were prepared. DMSO was dissolved to a concentration of 10 mM test compound and 10 mM reference compound AZD1775, and the compounds were serially diluted in culture medium for a total of 9 dose points, with 2 parallel replicates set at each concentration. The cell growth group without compound was used as a positive control (maximum signal control) and the medium was used as a negative control (minimum signal control), while ensuring that the final level of DMSO in each reaction well was 0.2%. After removing the medium from the 384-well plate, 25 ul of the configured compound at different concentrations was transferred into the well plate and the compound and cells were incubated in the cell incubator at 37° C. with 5% CO2 for 3 days.
The 384-well plates were removed from the cell incubator and allowed to equilibrate for 1 h to room temperature. 25 ul of Cell Titer-Glo assay was added to each well, lysed on a shaker for 2 min and then read out (Luminescence) using a BMG PHERAStar after 10 min incubation. Calculate the inhibition rate from the luminescence signal: first calculate the average of the positive control (maximum signal control) and the negative control (minimum signal control).
[formula] to calculate the rate of inhibition of the cells by different concentrations of the compounds. The IC50 of the compound on cell activity inhibition was calculated by fitting a log(inhibitor) vs. response-Variable slope model to GraphPad Prism 6. The fitted equation was: Y=Bottom+(Top−Bottom)/(1+10^((Log IC50−X)*HillSlope)), where Y represents the rate of inhibition and X represents the concentration of the known compound after Log.

[3] = Compound pharmacokinetics in mice; type: in vivo; settings: male ICR mice, oral gavage 10 mg/kg, plasma; for Cmax / AUC(0-inf) / half-life: mouse; for AUC(0-inf): read-out: AUCinf—Pred; for half-life: read-out: T½ (converted)
Procedure: To investigate the pharmacokinetic properties of the compound in mice, six male ICR mice were given the compound by oral gavage (10 mg/kg) at the corresponding dose, and each route of administration was divided into two groups: group A mice had anticoagulated whole blood collected at 5 min, 30 min, 2 h and 8 h after administration, while group B mice had anticoagulated whole blood collected at 15 min, 1 h, 4 h and 24 h after administration, isolated plasma;
The plasma concentrations of the compounds were determined by LC-MS using a standard curve calibration method. Plasma concentration-time data were fitted to pharmacokinetic parameters using Winnolin 5.2 software.

[4] = Plasma protein binding (PPB), human; type: in vitro ADME; settings: 5 h dialysis, read-out: Plasma protein binding rate (%) Human (converted)
Procedure: Sample preparation: The compound was dissolved in DMSO to a stock solution of 10 mM, then the compound was diluted with PBS to a secondary stock solution of 0.02 mM, and then the above 0.02 mM was diluted to 1 μM using blank plasma, which was the sample to be incubated.
Dialysis set-up preparation: 400 μL of blank PBS was first added to the white wells of the equilibrated dialysis plate and 200 μL of the configured plasma sample was added to the red wells, and the dialysis plate was sealed with a sealing film.
Recovery plate preparation: Two 96-well deep-well plates, labelled T0 and T5, were prepared and all plasma samples were added at n=2. 300 μL of acetonitrile (Verapamil-HCl, 4 ng/mL) was added directly to the TO plate, followed by 50 μL of blank PBS mix well for 5 min and left to stand in a 4° C. refrigerator until the end of the incubation.
Experimental Operation: The dialysis device and the T5 plate were incubated together for 5 h in a microplate thermostatic shaker (37° C., using 300 rpm or minimum speed). At the end of the incubation, 300 μL of acetonitrile (Verapamil-HCl, 4 ng/mL) was added and 50 μL of PBS solution was added. At the end of the dialysis incubation, a new 96-well deep well plate was taken. […]

[5] = 72 h, MIA Paca-2 cells, 3 days, Cell Titer-Glo

| Structure (SMILES) | half-life at 1 µM [1] [min] | IC50 [2, 5] [nM] | IC50 ([2]; MIA PaCa-2, 72 h) [nM] | Cl_pred [3] [mL/min/kg] | Cmax [3] [ng/mL] | AUC(0-inf) [3] [ng·h/mL] | half-life [3] [min] | fraction unbound at 5 h, 1 µM [4] |
| --- | --- | --- | --- | --- | --- | --- | --- | --- |
| Cc1cc(Nc2ncc3cnn(-c4cccc(N=S(C)(C)=O)n4)c3n2)ccc1N1CCN(C)CC1 [Compound 16] | 8.9 | 100 to 1000 |  |  |  |  |  |  |
| CN1CCN(c2ccc(Nc3ncc4cnn(-c5cccc(N=S(C)(C)=O)n5)c4n3)cc2)CC1 [Compound 1] | 60.3 |  | 100 to 1000 | 658 | 169 | 260 | 103 | 0.144 |
| Cc1cc(Nc2ncc3cnn(-c4cccc(N=S(C)(C)=O)n4)c3n2)ccc1N1CCC(N(C)C)CC1 [Compound 14] | 67.3 | < 100 |  |  |  |  |  |  |

More lines, main results first:

| half-life at 1 µM [1] [min] | IC50 [2, 5] [nM] | Structure (SMILES) | IC50 ([2]; MIA PaCa-2, 72 h) [nM] | Cl_pred [3] [mL/min/kg] | Cmax [3] [ng/mL] | AUC(0-inf) [3] [ng·h/mL] | half-life [3] [min] | fraction unbound at 5 h, 1 µM [4] |
| --- | --- | --- | --- | --- | --- | --- | --- | --- |
| 30.1 | 100 to 1000 | C=CCn1c(=O)c2cnc(Nc3ccc(N4CCN(C)CC4)cc3)nc2n1-c1cccc(C(C)(C)O)n1 [AZD-1775, reference compound] |  | 347 | 445 | 500 | 46.2 | 0.36 |
| 15.6 |  | CN1CCN(c2ccc(Nc3ncc4cnn(-c5cccc(C(C)(C)O)n5)c4n3)cc2)CC1 [Compound 2] |  |  |  |  |  |  |

— US12649748B2, “Wee1 inhibitor and use thereof” (JIANGSU TASLY DIYI PHARMACEUTICAL CO., LTD., priority 2021, dated 2026)
